Measured values published in publication PMC4298241 (ChemMedChem, 2014).
Read-outs that look alike come from different tables or passages of the source.

Key:
T. brucei (BSF) = test: Alamar Blue viability test, T. brucei bloodstream form; format: cell-based; conditions: Trypanosoma brucei
[1] = system: KB 3-1 cervix cancer cell line; conditions: read-out: cytotoxicity IC50; cited from earlier work

CCCCCCC1CCCC(C2CCC([C@H]3CC[C@H]([C@H](O)CCCCCCCCCCCCC4=C[C@H](C)OC4=O)O3)O2)O1 (stereo partly drawn) [Compound 6, chamuvarinin]
EC50 (T. brucei (BSF); read-out: T.brucei(BSF) EC50): 1400 ± 100 nM | EC50 (T. brucei (BSF); read-out: pEC50 (converted)): 1380 nM | IC50 [1]: 0.8 nM
